Results reported in PubChem BioAssay (NCI).
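Where inhibition never reached the appropriate level, the endpoint shown equals the highest concentration tested. Otherwise, values were interpolated linearly from a five-concentration, 48-hour dose response in 96-well plates. The concentration for 50% growth inhibition is given as GI50. TGI: total growth inhibition.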

Tests used:
Assay in all cases: NCI-60 cell line screen, 48 h
DU-145 prostate = test system: DU-145 prostate
HT29 colon = test system: HT29 colon
MALME-3M melanoma = test system: MALME-3M melanoma
MOLT-4 leukemia = test system: MOLT-4 leukemia
NCI-H460 lung = test system: NCI-H460 lung
NCI-H522 lung = test system: NCI-H522 lung
OVCAR-5 ovarian = test system: OVCAR-5 ovarian
RPMI-8226 leukemia = test system: RPMI-8226 leukemia
SF-295 CNS = test system: SF-295 CNS
UACC-62 melanoma = test system: UACC-62 melanoma

Row | SMILES | TGI (DU-145 prostate) [µM] | TGI (HT29 colon) [µM] | TGI (MALME-3M melanoma) [µM] | TGI (MOLT-4 leukemia) [µM] | TGI (NCI-H460 lung) [µM] | TGI (NCI-H522 lung) [µM] | TGI (OVCAR-5 ovarian) [µM] | TGI (RPMI-8226 leukemia) [µM] | TGI (SF-295 CNS) [µM] | TGI (UACC-62 melanoma) [µM] | GI50 (MALME-3M melanoma) [nM] | GI50 (OVCAR-5 ovarian) [nM] | GI50 (DU-145 prostate) [nM] | GI50 (HT29 colon) [nM] | GI50 (MOLT-4 leukemia) [nM] | GI50 (NCI-H460 lung) [nM] | GI50 (NCI-H522 lung) [nM] | GI50 (RPMI-8226 leukemia) [nM] | GI50 (SF-295 CNS) [nM] | GI50 (UACC-62 melanoma) [nM]
1 | CC[C@H](NC(=O)OC(C)(C)C)C(=O)NCP(=O)(OCc1ccc([N+](=O)[O-])cc1)OCc1ccc([N+](=O)[O-])cc1 | > 100 | 51.8 | > 100 | > 100 | > 100 | > 100 | > 100 | > 100 | 55.7 | 51.9 | – | – | – | – | – | – | – | – | – | –
2 | CSc1nc(=O)c2nc(-c3cccs3)c(-c3cccs3)nc2n1C | > 100 | > 100 | > 100 | > 100 | > 100 | 89.1 | > 100 | > 100 | > 100 | > 100 | – | – | – | – | – | – | – | – | – | –
3 | CC1=NN2C(=N)/C(=C/c3ccc(F)cc3)C(=O)N=C2S1 | > 100 | > 100 | > 100 | > 100 | > 100 | > 100 | > 100 | > 100 | > 100 | > 100 | – | – | – | – | – | – | – | – | – | –
4 | C=C(C)[C@H]1CC23C(=O)[C@@](C)(C[C@H]2C1(C)C)C(=O)C(C(=O)C(C)C)=C3O | > 100 | 26.4 | 28.6 | 19 | 45.3 | 36.8 | 40.8 | 27.9 | 36.7 | 29.8 | – | – | – | – | – | – | – | – | – | –
5 | CCC1([N+](=O)[O-])CN(N=O)C1 | > 100 | > 100 | > 100 | > 100 | > 100 | > 100 | > 100 | > 100 | > 100 | > 100 | – | – | – | – | – | – | – | – | – | –
6 | COc1cc2c(cc1OCc1ccccc1)NC(=O)[C@@H]1CCCN1C2=O | > 100 | > 100 | > 100 | > 100 | > 100 | > 100 | > 100 | > 100 | > 100 | > 100 | – | – | – | – | – | – | – | – | – | –
7 | CC1=C(C)SC(=C2Sc3c(n(C)c(=O)n(C)c3=O)S2)S1 | > 100 | > 100 | > 100 | > 100 | > 100 | > 100 | > 100 | > 100 | > 100 | > 100 | – | – | – | – | – | – | – | – | – | –
8 | COc1ccc(C(=O)/C=C/SC(=NC#N)SC)cc1 | 53.5 | 49.5 | 50.3 | 58 | > 100 | 37.1 | 47.1 | > 100 | 76 | 43.8 | – | – | – | – | – | – | – | – | – | –
9 | CSc1nc(Cl)c2c(n1)Sc1nc3ccccc3n1C2O (stereo unspecified) | 41.9 | 25.4 | > 67.3 | > 100 | > 74.6 | 7.28 | > 45 | 19.5 | > 100 | > 100 | – | – | – | – | – | – | – | – | – | –
10 | OC(CC(O)(C(F)(F)Cl)C(F)(F)Cl)c1ccccc1 (stereo unspecified) | > 10 | > 10 | > 10 | > 10 | > 10 | > 10 | > 10 | > 10 | > 10 | > 10 | – | – | – | – | – | – | – | – | – | –
11 | CN(C)/N=N/c1nc2c(c(=O)n(C)c(=O)n2C)n1CC1CO1 (stereo unspecified) | 37.5 | 35.1 | 25.1 | > 100 | 21.7 | 29.7 | > 100 | 93.1 | 56.9 | 24.8 | – | – | – | – | – | – | – | – | – | –
12 | NCCCCNCCCN1CCOC1=O | > 100 | > 100 | > 100 | > 100 | > 100 | > 100 | > 100 | > 100 | > 100 | > 100 | – | – | – | – | – | – | – | – | – | –
13 | C[C@H]1[C@H](C)CC[C@]2(C(=O)OC3OC(CO)C(O)C(O)C3O)CC[C@]3(C)C(=CC[C@@H]4[C@@]5(C)C[C@@H](O)[C@@H]6OC(=O)c7cc(O)c(O)c(O)c7-c7c(cc(O)c(O)c7O)C(=O)OC[C@@]6(CO)[C@@H]5CC[C@]43C)[C@H]12 (stereo partly specified) | > 100 | > 57.9 | > 100 | > 100 | > 100 | > 100 | > 100 | > 100 | > 100 | > 100 | – | – | – | – | – | – | – | – | – | –
14 | O=C1C=CC(=O)c2c(O)c(N3CCC[C@@H]3CO)c(Cl)c(O)c21 | 3.28 | 4.9 | 3.07 | 1.14 | 3.52 | 2.36 | 3.08 | 1.69 | 3.25 | 2.96 | – | – | – | – | – | – | – | – | – | –
15 | CN(C)CCNCCCNc1c2ccccc2nc2cccc([N+](=O)[O-])c12 | 0.0525 | < 0.0277 | 0.104 | < 0.0192 | 0.108 | < 0.0133 | 0.0543 | < 0.0226 | 0.0741 | 0.236 | – | – | – | – | – | – | – | – | – | –
16 | Oc1ccccc1/C=N/N1C(=S)N(C23CC4CC(CC(C4)C2)C3)C(=Nc2ccccc2)C1=Nc1ccccc1 | > 100 | > 100 | > 100 | > 100 | > 100 | > 100 | > 100 | > 100 | > 100 | > 100 | – | – | – | – | – | – | – | – | – | –

Row | SMILES | TGI (DU-145 prostate) [µM] | TGI (HT29 colon) [µM] | TGI (MALME-3M melanoma) [µM] | TGI (MOLT-4 leukemia) [µM] | TGI (NCI-H460 lung) [µM] | TGI (NCI-H522 lung) [µM] | TGI (OVCAR-5 ovarian) [µM] | TGI (RPMI-8226 leukemia) [µM] | TGI (SF-295 CNS) [µM] | TGI (UACC-62 melanoma) [µM] | GI50 (MALME-3M melanoma) [nM] | GI50 (OVCAR-5 ovarian) [nM] | GI50 (DU-145 prostate) [nM] | GI50 (HT29 colon) [nM] | GI50 (MOLT-4 leukemia) [nM] | GI50 (NCI-H460 lung) [nM] | GI50 (NCI-H522 lung) [nM] | GI50 (RPMI-8226 leukemia) [nM] | GI50 (SF-295 CNS) [nM] | GI50 (UACC-62 melanoma) [nM]
17 | CC(C)=CCC[C@@H](C)C1=C(Nc2ccccc2F)C(O)=C(C)C(=O)C1=O | > 100 | 24.3 | 29.5 | > 67.8 | > 100 | 17.1 | > 100 | > 100 | > 31.5 | 22.6 | – | – | – | – | – | – | – | – | – | –
18 | C[As+](C)(c1ccc(Br)c([N+](=O)[O-])c1)c1ccc(Br)c([N+](=O)[O-])c1.O=[N+]([O-])O | > 100 | > 100 | 34.1 | > 100 | > 100 | > 100 | > 100 | > 100 | > 100 | > 100 | – | – | – | – | – | – | – | – | – | –
19 | NC(=O)C1CCN(Cc2c(Cl)c(Cl)c(CN3CCC(C(N)=O)CC3)c(Cl)c2Cl)CC1 | > 100 | > 100 | > 100 | > 100 | > 100 | > 100 | > 100 | > 100 | 75.3 | > 100 | – | – | – | – | – | – | – | – | – | –
20 | O=C(c1ccc([N+](=O)[O-])cc1)N1CCCC1 | > 100 | > 100 | > 100 | > 100 | > 100 | > 100 | > 100 | > 100 | > 100 | > 100 | – | – | – | – | – | – | – | – | – | –
21 | N#C/C(C(=O)NCc1ccccc1)=C(/N)N1CCCC1 | > 100 | > 100 | > 100 | > 100 | > 100 | > 100 | > 100 | > 100 | > 100 | > 100 | – | – | – | – | – | – | – | – | – | –
22 | c1ccc2c(c1)cc1ccc3cccc4ccc2c1c34 | > 100 | > 100 | > 100 | > 100 | > 100 | > 100 | > 100 | > 100 | > 100 | > 100 | > 100000 | > 100000 | – | – | – | – | – | – | – | –
23 | C/C(=C\CSCC(N)C(=O)O)CC/C=C(\C)CNc1ccccc1 (stereo unspecified) | > 100 | > 100 | > 100 | > 100 | > 100 | > 100 | > 100 | > 100 | > 100 | > 100 | – | – | – | – | – | – | – | – | – | –
24 | COc1ccc([C@]23CCC4(OCC(C)(C)CO4)[C@H]4CON(O[C@H](O[C@@H]5CCCCC5C(C)(C)c5ccccc5)C2)[C@@H]43)cc1OC (stereo partly specified) | > 100 | > 100 | > 100 | 53.1 | > 100 | > 100 | > 100 | > 100 | > 100 | > 100 | – | – | – | – | – | – | – | – | – | –
25 | CCc1nc2c(c(N(C)C)c1C(=O)OC)CCc1ccccc1-2 | 40.9 | > 100 | > 100 | 23 | > 100 | 45.6 | > 100 | 46.6 | 50.9 | 40.4 | – | – | – | – | – | – | – | – | – | –
26 | CCN(CC)CCCCNc1c2ccc(Cl)cc2nc2ccc(OC)cc12 | 1.62 | 1.27 | 3.65 | 2.79 | – | 2.66 | 3.33 | 4.2 | 2.47 | 3.47 | 1540 | 465 | 340 | 141 | 306 | 287 | 397 | 566 | 717 | 1690
27 | Clc1ccc(/C(=C/c2ccccc2)Cn2ccnc2)cc1 | > 100 | > 100 | > 100 | > 100 | > 100 | 57.6 | > 100 | 73.6 | > 100 | > 100 | – | – | – | – | – | – | – | – | – | –
28 | CN1C2=Nc3n(c4ccccc4[n+]3C)CN2c2ccccc21 | > 100 | > 100 | 18 | > 100 | > 100 | 65.4 | > 100 | > 100 | > 100 | 42.6 | – | – | – | – | – | – | – | – | – | –
29 | CC1=C(C(=O)OCCO[N+](=O)[O-])C(c2ccccc2[N+](=O)[O-])C(C(=O)OC(C)C)=C(C)N1 (stereo unspecified) | 50.4 | 30.3 | 35.9 | > 100 | 34.2 | 30.5 | 30.4 | > 100 | 34.1 | 28.6 | – | – | – | – | – | – | – | – | – | –
30 | O=C1c2cc3c(cc2-c2c1c1ccc(Cl)cc1c(=O)n2CCCn1ccnc1)OCO3 | 0.282 | > 100 | > 100 | 1.17 | 10.3 | 30.7 | 49 | 0.546 | 10 | 0.0296 | 64.7 | 44.8 | < 10 | 17.4 | < 10 | < 10 | 18.2 | 21.5 | < 10 | < 10
31 | CCOC(=O)[C@@H](Cc1ccc(CCl)cc1)NC(C)=O | > 100 | > 100 | 37.7 | > 100 | 43.2 | 35.5 | 44.2 | 88.4 | > 100 | 31.5 | – | – | – | – | – | – | – | – | – | –
32 | NC(=O)NN=C1Cc2ccccc2C1 | > 100 | > 100 | > 100 | > 100 | > 100 | > 100 | > 100 | > 100 | > 100 | > 100 | – | – | – | – | – | – | – | – | – | –
